Experimental data: patent US20250163056A1, “NONMUSCLE MYOSIN II INHIBITORS” (The University of Florida Research Foundation, Inc., priority 2018, published 2025)

Key:
[1] = Photostability, percentage remaining undegraded under illumination or in the dark; conditions: for Photostability 4 hours: percentage remaining undegraded after 4 hours illumination; for Photostability 24 hours: percentage remaining undegraded after 24 hours illumination; for Photostability Dark (24 h): percentage remaining undegraded in the dark
[2] = target: Bovine cardiac myosin (Bos taurus (Bovine), UniProt Q9BE39); assay: Cardiac muscle myosin II actin-activated ATPase assay (NADH-coupled); type: biochemical; design: key to Ratio CMMII:NMII Ki/EC50: NMII-sel: no Ki value for cardiac myosin II could be determined; the compounds had no detectable inhibitory properties versus the cardiac myosin II; conditions: for Ratio CMMII:NMII Ki/EC50: cardiac myosin II Ki over nonmuscle myosin II EC50; for Ki: 300 nM cardiac myosin, 10 μM actin, 25° C., read-out: CMMII KI
Summary of the method: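 Inhibitory constants came from a quadratic one-to-one binding fit of 16-point dose-responses (highest final 50 uM, triplicate). Rates were NADH-calibrated fluorescence slopes over 30 min at 25° C, with 300 nM bovine cardiac myosin, 10 μM actin and 1 mM ATP coupled through PK/LDH in pH 7.0 MOPS buffer.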

[3] = target: Rabbit skeletal myosin; assay: Skeletal muscle myosin II actin-activated ATPase assay; type: biochemical; conditions: 20 nM skeletal muscle myosin II; read-out: SKMMII KI
Summary of the method: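 Inhibitory constants come from a quadratic one-site fit of 16-point, triplicate dose-response data, highest compound concentration 50 uM. Rates are slopes of NADH fluorescence decline over 30 min, coupling ATP turnover of 20 nM rabbit skeletal myosin II with 10 μM actin and 1 mM ATP via PK/LDH, pH 7.0, 25 °C.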

Sequence of Bovine cardiac myosin (Q9BE39 whole entry): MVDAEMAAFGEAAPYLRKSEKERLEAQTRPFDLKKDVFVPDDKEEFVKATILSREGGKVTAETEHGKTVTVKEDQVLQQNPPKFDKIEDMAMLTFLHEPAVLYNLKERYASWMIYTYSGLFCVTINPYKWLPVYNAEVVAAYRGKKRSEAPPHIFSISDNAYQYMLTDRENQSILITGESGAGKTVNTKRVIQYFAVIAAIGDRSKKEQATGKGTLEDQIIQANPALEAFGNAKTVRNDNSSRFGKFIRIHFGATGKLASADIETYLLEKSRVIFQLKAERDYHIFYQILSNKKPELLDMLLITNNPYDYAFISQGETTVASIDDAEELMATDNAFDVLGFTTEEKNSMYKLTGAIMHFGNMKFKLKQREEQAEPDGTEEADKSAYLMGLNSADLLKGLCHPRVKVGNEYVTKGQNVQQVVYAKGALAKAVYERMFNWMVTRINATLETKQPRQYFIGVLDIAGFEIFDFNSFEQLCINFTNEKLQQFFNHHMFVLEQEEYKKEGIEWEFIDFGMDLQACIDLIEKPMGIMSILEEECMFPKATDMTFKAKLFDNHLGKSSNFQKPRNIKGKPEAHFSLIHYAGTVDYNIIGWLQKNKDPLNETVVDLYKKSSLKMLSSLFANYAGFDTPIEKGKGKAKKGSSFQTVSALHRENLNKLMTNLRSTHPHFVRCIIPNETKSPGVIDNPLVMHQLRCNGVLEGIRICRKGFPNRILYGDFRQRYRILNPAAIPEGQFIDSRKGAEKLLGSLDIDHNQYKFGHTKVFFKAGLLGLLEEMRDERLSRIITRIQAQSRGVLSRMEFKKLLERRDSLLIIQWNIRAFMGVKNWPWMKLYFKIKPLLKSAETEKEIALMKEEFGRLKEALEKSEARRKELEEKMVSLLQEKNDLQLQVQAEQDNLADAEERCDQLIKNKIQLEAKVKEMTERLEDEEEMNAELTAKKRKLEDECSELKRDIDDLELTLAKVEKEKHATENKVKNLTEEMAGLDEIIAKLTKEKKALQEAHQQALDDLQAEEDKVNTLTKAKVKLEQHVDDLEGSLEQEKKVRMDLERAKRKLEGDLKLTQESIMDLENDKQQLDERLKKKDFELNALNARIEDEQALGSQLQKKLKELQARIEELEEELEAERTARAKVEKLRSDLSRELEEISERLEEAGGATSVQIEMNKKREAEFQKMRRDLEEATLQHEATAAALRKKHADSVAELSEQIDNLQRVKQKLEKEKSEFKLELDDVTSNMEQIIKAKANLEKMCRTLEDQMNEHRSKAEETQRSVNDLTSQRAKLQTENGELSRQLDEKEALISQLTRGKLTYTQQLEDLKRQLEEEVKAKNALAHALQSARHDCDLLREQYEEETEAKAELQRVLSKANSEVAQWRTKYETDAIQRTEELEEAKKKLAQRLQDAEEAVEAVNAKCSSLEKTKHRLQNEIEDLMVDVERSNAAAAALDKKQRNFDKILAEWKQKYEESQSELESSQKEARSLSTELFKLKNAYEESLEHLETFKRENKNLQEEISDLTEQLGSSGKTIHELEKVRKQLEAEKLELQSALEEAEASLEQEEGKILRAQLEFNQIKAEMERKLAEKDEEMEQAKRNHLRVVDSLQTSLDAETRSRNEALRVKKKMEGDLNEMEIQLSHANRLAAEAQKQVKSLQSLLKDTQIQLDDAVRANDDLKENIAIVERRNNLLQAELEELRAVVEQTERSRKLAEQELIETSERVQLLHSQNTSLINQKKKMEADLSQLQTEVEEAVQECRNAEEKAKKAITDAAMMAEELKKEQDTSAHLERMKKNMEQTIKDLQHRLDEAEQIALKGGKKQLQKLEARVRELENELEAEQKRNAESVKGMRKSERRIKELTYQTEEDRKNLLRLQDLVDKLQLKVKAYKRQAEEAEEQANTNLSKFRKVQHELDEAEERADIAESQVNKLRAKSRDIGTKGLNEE
Sequence of Bovine cardiac myosin (P85100 whole entry partner): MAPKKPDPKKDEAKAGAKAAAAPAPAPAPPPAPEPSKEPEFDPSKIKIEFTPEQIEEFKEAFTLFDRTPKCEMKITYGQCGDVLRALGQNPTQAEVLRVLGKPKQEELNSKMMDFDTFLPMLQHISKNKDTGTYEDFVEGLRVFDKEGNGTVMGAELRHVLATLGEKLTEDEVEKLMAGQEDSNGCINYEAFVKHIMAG
Sequence of Bovine cardiac myosin (Q3SZE5 whole entry partner): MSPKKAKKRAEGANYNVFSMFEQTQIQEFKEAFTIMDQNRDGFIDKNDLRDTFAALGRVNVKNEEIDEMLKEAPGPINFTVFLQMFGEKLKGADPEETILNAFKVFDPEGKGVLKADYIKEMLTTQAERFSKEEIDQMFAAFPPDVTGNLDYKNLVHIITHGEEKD

| SMILES | Photostability 4 hours [1] [%] | Photostability 24 hours [1] [%] | Photostability Dark (24 h) [1] [%] | Ratio CMMII:NMII Ki/EC50 [2] | Ki [3] [µM] | Ki [2] [µM] |
| --- | --- | --- | --- | --- | --- | --- |
| Cc1ccc2cc(N3CC[C@@]4(O)C(=O)c5cc(C)c(C)cc5N=C34)ccc2n1 [BPN-0027490] | 80.8 | 6.8 | 98.5 | NMII-sel | 0.41 | – |
| Cc1nc2cc(N3CC[C@@]4(O)C(=O)c5cc(C)c(C)cc5N=C34)ccc2s1 [BPN-0027491] | 54.0 | 6.7 | 97.1 | 10.4 | 0.68 | 24 |
| Cc1cc2c(cc1C)C(=O)[C@]1(O)CCN(c3ccc4nc(C#N)ccc4c3)C1=N2 [BPN-0027492] | 95.1 | 66.9 | >99 | NMII-sel | 2.6 | – |
| Cc1ccc2c(c1)C(=O)[C@]1(O)CCN(c3ccc4nc(N)ccc4c3)C1=N2 [BPN-0027494] | 63.5 | <1.0 | 88.4 | NMII-sel | 4.7 | – |
| Cc1cc2c(cc1C)C(=O)[C@]1(O)CCN(c3ccc4nnsc4c3)C1=N2 [BPN-0028550] | 92.7 | 77.6 | 89.4 | 7.5 | 9.4 | 70 |
| Cc1cc2c(cc1C)C(=O)[C@]1(O)CCN(c3ccc4c(c3)OCCN4)C1=N2 [BPN-0028552] | 87.7 | 62.2 | 91.8 | 21.7 | 2.5 | 26 |
| Cc1ccc2c(c1)C(=O)[C@]1(O)CCN(c3ccc4nc(CO)ccc4c3)C1=N2 [BPN-0028554] | 87.6 | 35.9 | 97.6 | 12.4 | 9 | 120 |
| Cc1cc2c(cc1C)C(=O)[C@]1(O)CCN(c3ccc4oc(CO)cc4c3)C1=N2 [BPN-0028555] | 4.7 | <1 | 93.6 | 6.1 | 1.5 | 4.6 |
| Cc1cc(N2CC[C@@]3(O)C(=O)c4cc(C)c(C)cc4N=C23)ccn1 [BPN-0028616] | 93.2 | 71.0 | 89.4 | 13.3 | 11 | 200 |
| CCC1=CC2N=C3N(c4ccc5ncccc5c4)CC[C@@]3(O)C(=O)C2S1 (stereo partly shown) [BPN-0028625] | 84.4 | 84.6 | 81.8 | 56.6 | 8.9 | 300 |
| Cc1ccc2c(c1)C(=O)[C@]1(O)CCN(c3cnc(C#N)c(Cl)c3)C1=N2 [BPN-0028646] | >99 | 97.1 | 98.2 | NMII-sel | 1.3 | – |
| COc1ccc(N2CC[C@@]3(O)C(=O)c4cc(C)c(C)cc4N=C23)cn1 [BPN-0028648] | 52.5 | <1 | 98.4 | 3.4 | 0.26 | 4.4 |
| Cc1cc2c(cc1C)C(=O)[C@]1(O)CCN(c3cnc(CO)c(Cl)c3)C1=N2 [BPN-0028649] | 96.7 | 73.1 | 98.4 | 7.1 | 2.7 | 30 |
| CNc1cc(N2CC[C@@]3(O)C(=O)c4cc(C)c(C)cc4N=C23)ccn1 [BPN-0028650] | 88.7 | 62.6 | 93.4 | 4.4 | 12 | 40 |
| Cc1ccc2c(c1)C(=O)[C@]1(O)CCN(c3ccc4ncc(N)cc4c3)C1=N2 [BPN-0028652] | 86.2 | 22.8 | 98.5 | 9.6 | 1.3 | 80 |
| Cc1cc2c(cc1C)C(=O)[C@]1(O)CCN(c3cnc(C)c(C)c3)C1=N2 [BPN-0028694] | 55.3 | 11.2 | 98.0 | 8.4 | 1.7 | 16 |
| Cc1cc(C)c2c(c1)N=C1N(c3ccc4ncccc4c3)CC[C@@]1(O)C2=O [BPN-0028697] | 88.4 | 25.4 | 97.3 | 7.5 | 1.9 | 60 |
| Cc1cc2c(cc1C)C(=O)[C@]1(O)CCN(c3cnc(C)c(C)c3)C1=N2 [BPN-0028731] | 37.6 | 7.4 | >99 | 7.7 | 2.2 | 40 |
| Cc1cc2c(cc1C)C(=O)[C@]1(O)CCN(c3cnc(CO)c(C)c3)C1=N2 [BPN-0028733] | 82.1 | 14.8 | 96.6 | 3.1 | 6.8 | 27 |
| Cc1cc2c(cc1C)C(=O)[C@]1(O)CCN(c3cnc4c(c3)NCCO4)C1=N2 [BPN-0028734] | 76 | <1 | 96.3 | 5.0 | 2.9 | 15 |
| Cc1cc2c(cc1C)C(=O)[C@]1(O)CCN(c3ccc4ncc(CO)cc4c3)C1=N2 [BPN-0028736] | 64 | 2 | 95.3 | 6.9 | 1.5 | 90 |
| Cc1cc2c(cc1C)C(=O)[C@]1(O)CCN(c3ccc4c(c3)COCCN4)C1=N2 [BPN-0028758] | 90.9 | 55.3 | 93.3 | 4.1 | 40 | 210 |
| Cc1cc2c(cc1C)C(=O)[C@]1(O)CCN(c3cnc(C#N)c(C)c3)C1=N2 [BPN-0028760] | 87.9 | 83 | 87.6 | 4.3 | 0.94 | 16 |
| Cc1cc2c(cc1C)C(=O)[C@]1(O)CCN(c3ccc4c(c3)NCCO4)C1=N2 [BPN-0028790] | 92.7 | 64 | 95.3 | 3.8 | 1 | 2.4 |
| COc1ncc(N2CC[C@@]3(O)C(=O)c4cc(C)c(C)cc4N=C23)cc1Cl [BPN-0028820] | 80.9 | 62.7 | 94.2 | NMII-sel | 3 | – |
